Test results reported in publication PMC4978154, “Phase I metabolites of mephedrone display biological activity as substrates at monoamine transporters” (British Journal of Pharmacology, 2016).
Several values for one entry are separate records, joined by “and”; a condition that tells them apart may be missing. Equal values may be shown once. Read-outs that look alike come from different tables or passages of the source.

What was measured:
hDAT = biological target: T1, hDAT (Homo sapiens, UniProt Q01959); assay: Transporter uptake inhibition in HEK293 cells expressing hDAT; format: cell-based; conditions: [3H]-MPP+ uptake; for IC50: mean (95% confidence interval)
T1 construct: expressed in transfected cells
Experimental: (§1) The generation of HEK293 cells stably expressing the human isoforms of DAT (hDAT) and NET (hNET) was carried out as described previously (Scholze et al., 2002). For SERT, the human isoform (hSERT) was cloned in frame with yellow fluorescent protein (Schmid et al., 2001). The generation of a stable cell line was performed as described by Hilber and colleagues (Hilber et al., 2005). HEK293 cells were maintained in humidified atmosphere (5% CO2, 37°C) in DMEM, supplemented with 10% heat‐inactivated FBS and penicillin (100 u 100 mL^−1) and streptomycin (100 μg 100 mL^−1). Selection pressure was maintained by adding geneticin (50 μg·mL^−1) to the cell culture media.
(§2) Uptake experiments were conducted as described previously (Sitte et al., 2001) with minor modifications. In brief, HEK293 cells expressing hDAT, hNET or hSERT were seeded into poly‐D‐lysine (PDL) coated 96‐well plates at a density of 40 000 cells per well. The next day, DMEM was aspirated and replaced with Krebs HEPES buffer (KHB, 25 mM HEPES, 120 mM NaCl, 5 mM KCl, 1.2 mM CaCl2, and 1.2 mM MgSO4, 5 mM D‐glucose, pH adjusted to 7.3 with NaOH) (200 μL per well), and cells were pre‐incubated with various concentrations of mephedrone or its metabolites for 5 min (50 μL per well). Subsequently, 0.1 μM of [^3H]‐5‐HT or 0.02 μM of [^3H]‐MPP^+ were added, and uptake was terminated after 1 (hSERT) or 3 min (hDAT, hNET) by washing the cells with 200 μL of ice‐cold KHB. Cells were lysed with 1% SDS, and tritium uptake was determined by scintillation counting. Nonspecific uptake was determined in the presence of 10 μM paroxetine (hSERT) or 10 μM mazindol (hDAT and hNET).
(§3) Calculations were performed using Microsoft Excel® 2010 (Microsoft Corporation, Redmond, WA, USA) and GRAPHPAD PRISM 5.0. (GraphPad Software Inc., La Jolla, CA, USA). IC50 values for uptake inhibition and EC50 values for release were determined by nonlinear regression fits. Release data expressed as AUC were analysed by one‐way ANOVA followed by Bonferroni's multiple comparison test. Microdialysis and locomotor data were analysed by two‐way ANOVA (drug treatment × time) followed by Bonferroni's test. The effect of monensin treatment on basal efflux of tritiated substrate was analysed with the Mann–Whitney test. P values less than 0.05 (i.e. P < 0.05) were considered significant. The data and statistical analysis comply with the recommendations on experimental design and analysis in pharmacology (Curtis et al., 2015).

hSERT = biological target: T2, hSERT (Homo sapiens, UniProt P31645); assay: Transporter uptake inhibition in HEK293 cells expressing hSERT; format: cell-based; conditions: [3H]-5-HT uptake; for IC50: mean (95% confidence interval)
T2 construct: yellow fluorescent protein (YFP); expressed in transfected cells
Experimental: as §1, §2, §3

SERT = biological target: T3, SERT (Rattus norvegicus, UniProt P31652); assay: Transporter release assay in rat brain synaptosomes, SERT; format: biochemical; conditions: [3H]-5-HT; for EC50: mean (95% confidence interval)
T3 construct: a native tissue preparation that contains plasma membrane transporters in situ; from tissue; host or cells: rat whole brain minus striatum and cerebellum, synaptosomes
Experimental: The ability of mephedrone and its metabolites to evoke release via DAT, NET and SERT was determined in rat brain synaptosomes as previously described (Baumann et al., 2012). Rats were killed with CO2, decapitated, and brains were rapidly removed and dissected on ice. Synaptosomes were prepared from striatum for DAT assays, whereas synaptosomes were prepared from whole brain minus striatum and cerebellum for the NET and SERT assays. [^3H]‐MPP^+ (9 nM) was used as the radiolabelled substrate for DAT and NET, whereas [^3H]‐5‐HT (5 nM) was used as the radiolabelled substrate for SERT. All buffers used in the release assays contained 1 μM reserpine to block vesicular uptake of substrates. The selectivity of assays was optimized for a single transporter by including unlabelled compounds [nomifensine and 1‐(2‐diphenylmethoxyethyl)‐4‐(3‐phenylpropyl)piperazine dihydrochloride (GBR12935) for SERT; GBR12935 and citalopram for NET; citalopram and desipramine for DAT] to prevent the uptake of [^3H]‐MPP^+ or [^3H]‐5‐HT by competing transporters. Synaptosomes were preloaded with radiolabelled substrate in Krebs‐phosphate buffer, which consisted of 126 mM NaCl, 2.4 mM KCl, 0.5 mM KH2PO4, 1.1 mM CaCl2, 0.83 mM MgCl2, 0.5 mM Na2SO4, 11.1 mM glucose, 13.7 mM Na2HPO4, 1 mg·mL^−1 ascorbic acid and 50 μM pargyline (pH = 7.4) for 1 h (steady state). Assays were initiated by adding 850 μL of preloaded synaptosomes to 150 μL of test drug. Dose–response curves were generated using eight different concentrations of mephedrone, nor‐mephedrone or 4‐OH‐mephedrone. Assays were terminated by vacuum filtration, and retained radioactivity was quantified by liquid scintillation counting.
as §3

[1] = IC50 on uptake mediated by hDAT
[2] = IC50 on uptake mediated by hSERT
[3] = EC50 on transporter mediated efflux, SERT

T1 sequence (Q01959 whole entry): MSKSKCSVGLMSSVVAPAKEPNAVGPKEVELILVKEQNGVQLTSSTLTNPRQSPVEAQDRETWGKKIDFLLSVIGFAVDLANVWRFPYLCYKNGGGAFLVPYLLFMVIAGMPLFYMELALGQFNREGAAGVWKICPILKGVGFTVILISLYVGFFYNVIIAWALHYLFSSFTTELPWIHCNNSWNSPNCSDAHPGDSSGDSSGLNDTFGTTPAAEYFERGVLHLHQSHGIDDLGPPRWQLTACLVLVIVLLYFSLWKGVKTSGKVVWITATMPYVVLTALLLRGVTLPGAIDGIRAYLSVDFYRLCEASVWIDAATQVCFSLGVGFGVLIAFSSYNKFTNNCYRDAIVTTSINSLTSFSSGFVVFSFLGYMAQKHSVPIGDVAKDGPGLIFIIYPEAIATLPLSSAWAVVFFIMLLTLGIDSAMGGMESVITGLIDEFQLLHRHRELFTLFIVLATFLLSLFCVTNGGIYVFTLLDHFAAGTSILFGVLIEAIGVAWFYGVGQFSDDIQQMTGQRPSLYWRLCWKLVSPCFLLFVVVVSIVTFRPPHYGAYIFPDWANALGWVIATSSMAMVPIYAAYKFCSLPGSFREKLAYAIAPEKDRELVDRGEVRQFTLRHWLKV
T3 sequence (P31652 whole entry): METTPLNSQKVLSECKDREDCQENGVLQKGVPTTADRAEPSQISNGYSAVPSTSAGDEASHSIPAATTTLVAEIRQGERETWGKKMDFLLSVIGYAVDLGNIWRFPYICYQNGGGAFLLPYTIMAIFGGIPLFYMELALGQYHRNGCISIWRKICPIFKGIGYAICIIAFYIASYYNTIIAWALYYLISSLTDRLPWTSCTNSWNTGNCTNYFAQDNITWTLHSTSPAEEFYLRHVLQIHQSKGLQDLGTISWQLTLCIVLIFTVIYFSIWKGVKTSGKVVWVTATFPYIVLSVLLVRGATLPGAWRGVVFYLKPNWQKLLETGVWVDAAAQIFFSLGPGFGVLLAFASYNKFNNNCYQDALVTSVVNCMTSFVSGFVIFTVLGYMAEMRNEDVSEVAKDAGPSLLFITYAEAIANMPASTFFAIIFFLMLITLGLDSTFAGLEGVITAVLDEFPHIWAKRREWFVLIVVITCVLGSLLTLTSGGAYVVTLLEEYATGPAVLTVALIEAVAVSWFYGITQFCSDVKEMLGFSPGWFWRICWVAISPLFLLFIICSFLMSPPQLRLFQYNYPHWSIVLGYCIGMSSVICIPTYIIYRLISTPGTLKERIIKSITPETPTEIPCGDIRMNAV
T2 sequence (P31645 whole entry): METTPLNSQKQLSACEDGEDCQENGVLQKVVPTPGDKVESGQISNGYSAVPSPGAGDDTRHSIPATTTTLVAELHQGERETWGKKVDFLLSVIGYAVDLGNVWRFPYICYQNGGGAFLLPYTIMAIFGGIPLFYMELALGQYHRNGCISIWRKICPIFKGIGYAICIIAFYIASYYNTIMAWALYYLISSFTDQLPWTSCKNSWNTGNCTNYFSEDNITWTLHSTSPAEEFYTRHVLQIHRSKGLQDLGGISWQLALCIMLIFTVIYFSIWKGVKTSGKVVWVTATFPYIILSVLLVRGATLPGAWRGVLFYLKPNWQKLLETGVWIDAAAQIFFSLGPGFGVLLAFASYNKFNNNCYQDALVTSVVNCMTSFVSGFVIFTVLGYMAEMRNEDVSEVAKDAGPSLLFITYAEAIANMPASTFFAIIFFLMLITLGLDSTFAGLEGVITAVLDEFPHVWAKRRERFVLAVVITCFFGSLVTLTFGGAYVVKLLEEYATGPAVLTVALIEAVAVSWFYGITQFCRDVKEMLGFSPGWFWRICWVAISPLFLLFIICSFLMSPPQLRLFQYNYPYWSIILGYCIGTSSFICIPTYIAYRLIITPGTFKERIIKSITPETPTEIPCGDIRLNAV

| Structure (SMILES) | IC50 (hDAT; [1]) [µM] | efficacy of uptake inhibition at hDAT (hDAT) | IC50 (hSERT; [2]) [µM] | efficacy of uptake inhibition at hSERT (hSERT) | EC50 (SERT; [3]) | IC50 (hDAT; read-out: IC50 on uptake mediated by hDAT) [µM] | IC50 (hSERT; read-out: IC50 on uptake mediated by hSERT) [µM] | rightward shift of SERT release curve compared with mephedrone (SERT) [fold] | EC50 (SERT; read-out: EC50 on transporter mediated efflux, SERT) |
| --- | --- | --- | --- | --- | --- | --- | --- | --- | --- |
| CNC(C)C(=O)c1ccc(C)cc1.Cl (stereo not shown) [Mephedrone, 2‐Methylamino‐1‐(p‐tolyl)propan‐1‐one hydrochloride] | 0.77 | fully efficacious inhibitors of uptake | 7.83 | fully efficacious inhibitors of uptake | 0.21 µM |  |  |  |  |
| CNC(C)C(=O)c1ccc(CO)cc1.Cl (stereo not shown) [4‐OH‐mephedrone, 1‐(4‐(hydroxymethyl)phenyl)‐2‐(methylamino)propan‐1‐one hydrochloride] |  | fully efficacious inhibitors of uptake |  | fully efficacious inhibitors of uptake |  | 2.92 | 73.5 | 10 | 2 µM and 2.01 µM |
| Cc1ccc(C(=O)C(C)N)cc1.Cl (stereo not shown) [Nor‐mephedrone, 2‐amino‐1‐(p‐tolyl)propan‐1‐one hydrochloride] | 6.35 | fully efficacious inhibitors of uptake | 10.6 | fully efficacious inhibitors of uptake | 0.2 µM and 0.21 µM |  |  |  |  |
